Data reported in US9113629B2, “4-amino-6-(4-substituted-phenyl)-picolinates and 6-amino-2-(4-substituted-phenyl)-pyrimidine-4-carboxylates and their use as herbicides” (DOW AGROSCIENCES LLC, priority 2013, dated 2015).

Test system: Key Grass and Sedge Weeds as well as Grass Crops
Assay: Post-emergent Test II herbicidal activity (Table 6)
Format: in vivo
Settings: Triticum aestivum, post-emergence, 336 h, TRZSS (wheat), application rate 140 g ai/ha, read-out: Visual Growth Reduction (%) 14 Days After Application, TRZSS
Experimental: (§1) Post-emergent Test II: Seeds or nutlets of the desired test plant species were planted in Sun Gro Metro-Mix® 360 planting mixture, which typically has a pH of 6.0 to 6.8 and an organic matter content of about 30 percent, in plastic pots with a surface area of 64 square centimeters. When required to ensure good germination and healthy plants, a fungicide treatment and/or other chemical or physical treatment was applied. The plants were grown for 7-21 d in a greenhouse with an approximate 15 h photoperiod which was maintained at about 23-29° C. during the day and 22-28° C. during the night. Nutrients and water were added on a regular basis and supplemental lighting was provided with overhead metal halide 1000-Watt lamps as necessary. The plants were employed for testing when they reached the first or second true leaf stage.
(§2) A weighed amount, determined by the highest rate to be tested, of each test compound was placed in a 25 mL glass vial and was dissolved in 4 mL of a 97:3 v/v mixture of acetone and DMSO to obtain concentrated stock solutions. […] The concentrated stock solutions obtained were diluted with 20 mL of an aqueous mixture containing acetone, water, isopropyl alcohol, DMSO. Atplus 411F crop oil concentrate, and Triton® X-155 surfactant in a 48.5:39:10:1.5:1.0:0.02 v/v ratio to obtain spray solutions containing the highest application rates. Additional application rates were obtained by serial dilution of 12 mL of the high rate solution into a solution containing 2 mL of 97:3 v/v mixture of acetone and DMSO and 10 mL of an aqueous mixture containing acetone, water, isopropyl alcohol, DMSO, Atplus 411F crop oil concentrate, and Triton X-155 surfactant in a 48.5:39:10:1.5:1.0:0.02 v/v ratio to obtain ½×, ¼×, ⅛× and 1/16× rates of the high rate. Compound requirements are based upon a 12 mL application volume at a rate of 187 liters per hectare (L/ha). Formulated compounds were applied to the plant material with an overhead Mandel track sprayer equipped with 8002E nozzles calibrated to deliver 187 L/ha over an application area of 0.503 square meters at a spray height of 18 inches (43 cm) above the average plant canopy height. Control plants were sprayed in the same manner with the solvent blank.
(§3) The treated plants and control plants were placed in a greenhouse as described above and watered by subirrigation to prevent wash-off of the test compounds. After 14 d, the condition of the test plants as compared with that of the untreated plants was determined visually and scored on a scale of 0 to 100 percent where 0 corresponds to no injury and 100 corresponds to complete kill.
With Nc1c(Cl)c(C(=O)O)nc(-c2ccc(OC(F)F)cc2)c1Cl [Compound 33] the pest or weed control at 140 g/ha was 0 to 29%.
C#Cc1ccc(-c2cc(N)c(Cl)c(C(=O)O)n2)cc1 [Compound 48] gave a pest or weed control at 140 g/ha of 30 to 44%.
COC(=O)c1nc(-c2ccc(Br)cc2)c(C)c(N)c1Cl [Compound 81, methyl 4-amino-6-(4-bromophenyl)-3-chloro-5-methylpicolinate] gave a pest or weed control at 140 g/ha of 45 to 59%.

Same assay, conditions: post-emergence, 336 h, CYPES: yellow nutsedge (Cyperus esculentus), application rate 140 g ai/ha, read-out: Visual Growth Reduction (%) 14 Days After Application, CYPES
For Nc1c(Cl)c(C(=O)O)nc(-c2ccc(OC(F)F)cc2)c1Cl [Compound 33], the pest or weed control at 140 g/ha was 0 to 29%.
In the case of C#Cc1ccc(-c2cc(N)c(Cl)c(C(=O)O)n2)cc1 [Compound 48], the pest or weed control at 140 g/ha is reported as 0 to 29%.
COC(=O)c1nc(-c2ccc(Br)cc2)c(C)c(N)c1Cl [Compound 81, methyl 4-amino-6-(4-bromophenyl)-3-chloro-5-methylpicolinate] showed a pest or weed control at 140 g/ha of 0 to 29%.

Same assay, conditions: post-emergence, 336 h, DIGSA: crabgrass (Digitaria sanguinalis), application rate 140 g ai/ha, read-out: Visual Growth Reduction (%) 14 Days After Application, DIGSA
In the case of Nc1c(Cl)c(C(=O)O)nc(-c2ccc(OC(F)F)cc2)c1Cl [Compound 33], the pest or weed control at 140 g/ha is reported as 0 to 29%.
Compound C#Cc1ccc(-c2cc(N)c(Cl)c(C(=O)O)n2)cc1 [Compound 48] has a pest or weed control at 140 g/ha of 60 to 74%.
In the case of COC(=O)c1nc(-c2ccc(Br)cc2)c(C)c(N)c1Cl [Compound 81, methyl 4-amino-6-(4-bromophenyl)-3-chloro-5-methylpicolinate], the pest or weed control at 140 g/ha is reported as 45 to 59%.

Same assay, conditions: post-emergence, 336 h, ECHCG: barnyardgrass (Echinochloa crus-galli), application rate 140 g ai/ha, read-out: Visual Growth Reduction (%) 14 Days After Application, ECHCG
Nc1c(Cl)c(C(=O)O)nc(-c2ccc(OC(F)F)cc2)c1Cl [Compound 33] gave a pest or weed control at 140 g/ha of 0 to 29%.
Work on C#Cc1ccc(-c2cc(N)c(Cl)c(C(=O)O)n2)cc1 [Compound 48] yielded a pest or weed control at 140 g/ha of 75 to 84%.
In the case of COC(=O)c1nc(-c2ccc(Br)cc2)c(C)c(N)c1Cl [Compound 81, methyl 4-amino-6-(4-bromophenyl)-3-chloro-5-methylpicolinate], the pest or weed control at 140 g/ha is reported as 0 to 29%.

Same assay, conditions: post-emergence, 336 h, ORYSA: rice (Oryza sativa), application rate 140 g ai/ha, read-out: Visual Growth Reduction (%) 14 Days After Application, ORYSA
With Nc1c(Cl)c(C(=O)O)nc(-c2ccc(OC(F)F)cc2)c1Cl [Compound 33] the pest or weed control at 140 g/ha was 0 to 29%.
For C#Cc1ccc(-c2cc(N)c(Cl)c(C(=O)O)n2)cc1 [Compound 48], the pest or weed control at 140 g/ha was 0 to 29%.
Compound COC(=O)c1nc(-c2ccc(Br)cc2)c(C)c(N)c1Cl [Compound 81, methyl 4-amino-6-(4-bromophenyl)-3-chloro-5-methylpicolinate] has a pest or weed control at 140 g/ha of 0 to 29%.

Same assay, conditions: post-emergence, 336 h, SETFA: giant foxtail (Setaria faberi), application rate 140 g ai/ha, read-out: Visual Growth Reduction (%) 14 Days After Application, SETFA
Compound Nc1c(Cl)c(C(=O)O)nc(-c2ccc(OC(F)F)cc2)c1Cl [Compound 33] has a pest or weed control at 140 g/ha of 0 to 29%.
For C#Cc1ccc(-c2cc(N)c(Cl)c(C(=O)O)n2)cc1 [Compound 48], the pest or weed control at 140 g/ha was 0 to 29%.
COC(=O)c1nc(-c2ccc(Br)cc2)c(C)c(N)c1Cl [Compound 81, methyl 4-amino-6-(4-bromophenyl)-3-chloro-5-methylpicolinate] gave a pest or weed control at 140 g/ha of 60 to 74%.

Same assay, conditions: post-emergence, 336 h, SORVU: grain sorghum (Sorghum vulgare), application rate 140 g ai/ha, read-out: Visual Growth Reduction (%) 14 Days After Application, SORVU
Nc1c(Cl)c(C(=O)O)nc(-c2ccc(OC(F)F)cc2)c1Cl [Compound 33] gave a pest or weed control at 140 g/ha of 0 to 29%.
In the case of C#Cc1ccc(-c2cc(N)c(Cl)c(C(=O)O)n2)cc1 [Compound 48], the pest or weed control at 140 g/ha is reported as 0 to 29%.
COC(=O)c1nc(-c2ccc(Br)cc2)c(C)c(N)c1Cl [Compound 81, methyl 4-amino-6-(4-bromophenyl)-3-chloro-5-methylpicolinate] gave a pest or weed control at 140 g/ha of 75 to 84%.

Same assay, conditions: post-emergence, 336 h, ZEAMX: maize, corn (Zea mays), application rate 140 g ai/ha, read-out: Visual Growth Reduction (%) 14 Days After Application, ZEAMX
Nc1c(Cl)c(C(=O)O)nc(-c2ccc(OC(F)F)cc2)c1Cl [Compound 33] showed a pest or weed control at 140 g/ha of 0 to 29%.
With C#Cc1ccc(-c2cc(N)c(Cl)c(C(=O)O)n2)cc1 [Compound 48] the pest or weed control at 140 g/ha was 0 to 29%.
Work on COC(=O)c1nc(-c2ccc(Br)cc2)c(C)c(N)c1Cl [Compound 81, methyl 4-amino-6-(4-bromophenyl)-3-chloro-5-methylpicolinate] yielded a pest or weed control at 140 g/ha of 75 to 84%.

Test system: not given
Assay: not given
Settings: not given
Work on Nc1c(Cl)c(C(=O)O)nc(-c2ccc(OC(F)F)cc2)c1Cl [Compound 33] yielded a melting point of 146.3 to 147.6 °C.
C#Cc1ccc(-c2cc(N)c(Cl)c(C(=O)O)n2)cc1 [Compound 48] gave a melting point of 204.2 to 205.9 °C.
For COC(=O)c1nc(-c2ccc(Br)cc2)c(C)c(N)c1Cl [Compound 81, methyl 4-amino-6-(4-bromophenyl)-3-chloro-5-methylpicolinate], the melting point was 128 to 130 °C.

Test system: Key Broadleaf Weed and Crop Species
Assay: Post-emergent Test II herbicidal activity (Table 5)
Format: in vivo
Settings: post-emergence, 336 h; ABUTH: velvetleaf (Abutilon theophrasti); 140 g ai/ha; post-emergent; 14 days after application; read-out: Visual Growth Reduction (%) 14 Days After Application ABUTH
Experimental: as §1, §2, §3
Compound Nc1c(Cl)c(C(=O)O)nc(-c2ccc(OC(F)F)cc2)c1Cl [Compound 33] has a pest or weed control at 140 g/ha of 60 to 74%.
In the case of C#Cc1ccc(-c2cc(N)c(Cl)c(C(=O)O)n2)cc1 [Compound 48], the pest or weed control at 140 g/ha is reported as 95 to 100%.
In the case of COC(=O)c1nc(-c2ccc(Br)cc2)c(C)c(N)c1Cl [Compound 81, methyl 4-amino-6-(4-bromophenyl)-3-chloro-5-methylpicolinate], the pest or weed control at 140 g/ha is reported as 95 to 100%.

Same assay, conditions: post-emergence, 336 h; AMARE: redroot pigweed (Amaranthus retroflexus); 140 g ai/ha; post-emergent; 14 days after application; read-out: Visual Growth Reduction (%) 14 Days After Application AMARE
Work on Nc1c(Cl)c(C(=O)O)nc(-c2ccc(OC(F)F)cc2)c1Cl [Compound 33] yielded a pest or weed control at 140 g/ha of 0 to 29%.
Work on C#Cc1ccc(-c2cc(N)c(Cl)c(C(=O)O)n2)cc1 [Compound 48] yielded a pest or weed control at 140 g/ha of 95 to 100%.
COC(=O)c1nc(-c2ccc(Br)cc2)c(C)c(N)c1Cl [Compound 81, methyl 4-amino-6-(4-bromophenyl)-3-chloro-5-methylpicolinate] showed a pest or weed control at 140 g/ha of 95 to 100%.

Same assay, conditions: post-emergence, 336 h; BRSNN: oilseed-rape, canola (Brassica napus); 140 g ai/ha; post-emergent; 14 days after application; read-out: Visual Growth Reduction (%) 14 Days After Application BRSNN
For Nc1c(Cl)c(C(=O)O)nc(-c2ccc(OC(F)F)cc2)c1Cl [Compound 33], the pest or weed control at 140 g/ha was 30 to 44%.
Compound C#Cc1ccc(-c2cc(N)c(Cl)c(C(=O)O)n2)cc1 [Compound 48] has a pest or weed control at 140 g/ha of 85 to 94%.
COC(=O)c1nc(-c2ccc(Br)cc2)c(C)c(N)c1Cl [Compound 81, methyl 4-amino-6-(4-bromophenyl)-3-chloro-5-methylpicolinate] showed a pest or weed control at 140 g/ha of 60 to 74%.

Same assay, conditions: post-emergence, 336 h; CHEAL: lambsquarters (Chenopodium album); 140 g ai/ha; post-emergent; 14 days after application; read-out: Visual Growth Reduction (%) 14 Days After Application CHEAL
In the case of Nc1c(Cl)c(C(=O)O)nc(-c2ccc(OC(F)F)cc2)c1Cl [Compound 33], the pest or weed control at 140 g/ha is reported as 0 to 29%.
Compound C#Cc1ccc(-c2cc(N)c(Cl)c(C(=O)O)n2)cc1 [Compound 48] has a pest or weed control at 140 g/ha of 85 to 94%.
With COC(=O)c1nc(-c2ccc(Br)cc2)c(C)c(N)c1Cl [Compound 81, methyl 4-amino-6-(4-bromophenyl)-3-chloro-5-methylpicolinate] the pest or weed control at 140 g/ha was 95 to 100%.

Same assay, conditions: post-emergence, 336 h; EPHHL: wild poinsettia (Euphorbia heterophylla); 140 g ai/ha; post-emergent; 14 days after application; read-out: Visual Growth Reduction (%) 14 Days After Application EPHHL
With Nc1c(Cl)c(C(=O)O)nc(-c2ccc(OC(F)F)cc2)c1Cl [Compound 33] the pest or weed control at 140 g/ha was 0 to 29%.
C#Cc1ccc(-c2cc(N)c(Cl)c(C(=O)O)n2)cc1 [Compound 48] showed a pest or weed control at 140 g/ha of 95 to 100%.
Compound COC(=O)c1nc(-c2ccc(Br)cc2)c(C)c(N)c1Cl [Compound 81, methyl 4-amino-6-(4-bromophenyl)-3-chloro-5-methylpicolinate] has a pest or weed control at 140 g/ha of 75 to 84%.

Same assay, conditions: post-emergence, 336 h; HELAN: sunflower (Helianthus annuus); 140 g ai/ha; post-emergent; 14 days after application; read-out: Visual Growth Reduction (%) 14 Days After Application HELAN
Nc1c(Cl)c(C(=O)O)nc(-c2ccc(OC(F)F)cc2)c1Cl [Compound 33] showed a pest or weed control at 140 g/ha of 95 to 100%.
Compound C#Cc1ccc(-c2cc(N)c(Cl)c(C(=O)O)n2)cc1 [Compound 48] has a pest or weed control at 140 g/ha of 95 to 100%.
For COC(=O)c1nc(-c2ccc(Br)cc2)c(C)c(N)c1Cl [Compound 81, methyl 4-amino-6-(4-bromophenyl)-3-chloro-5-methylpicolinate], the pest or weed control at 140 g/ha was 95 to 100%.

Same assay, conditions: post-emergence, 336 h; VIOTR: wild pansy (Viola tricolor); 140 g ai/ha; post-emergent; 14 days after application; read-out: Visual Growth Reduction (%) 14 Days After Application VIOTR
Work on Nc1c(Cl)c(C(=O)O)nc(-c2ccc(OC(F)F)cc2)c1Cl [Compound 33] yielded a pest or weed control at 140 g/ha of 0 to 29%.
In the case of C#Cc1ccc(-c2cc(N)c(Cl)c(C(=O)O)n2)cc1 [Compound 48], the pest or weed control at 140 g/ha is reported as 0 to 29%.
Compound COC(=O)c1nc(-c2ccc(Br)cc2)c(C)c(N)c1Cl [Compound 81, methyl 4-amino-6-(4-bromophenyl)-3-chloro-5-methylpicolinate] has a pest or weed control at 140 g/ha of 0 to 29%.
